As for `Nc1nccc(Oc2ccc3c(C(=O)Nc4ccc(F)c(C(F)(F)F)c4)nsc3c2)n1` [Example 6, 6-(2-Amino-pyrimidin-4-yloxy)-benzo[d]isothiazole-3-carboxylic acid (4-fluoro-3-trifluoromethyl-phenyl)-amide], the melting point was 237 to 239 °C.
For `CN1CCN(Cc2ccc(NC(=O)c3nsc4cc(Oc5ccnc(N)n5)ccc34)cc2C(F)(F)F)CC1` [Example 7, 6-(2-Amino-pyrimidin-4-yloxy)-benzo[d]isothiazole-3-carboxylic acid [4-(4-methyl-piperazin-1-ylmethyl)-3-trifluoromethyl-phenyl]-amide] the value was 215 to 217 °C; for `Nc1nccc(Oc2ccc3c(C(=O)Nc4cccc(C(F)(F)F)c4)cnn3c2)n1` [Example 15, 6-(2-Amino-pyrimidin-4-yloxy)-pyrazolo[1,5-a]pyridine-3-carboxylic acid (3-trifluoromethyl-phenyl)-amide], 102 to 104 °C; for `O=C(Nc1ccc(F)c(C(F)(F)F)c1)c1csc2cc(Oc3cc(CO)ncn3)ccc12` [Example 19, 6-(6-Hydroxymethyl-pyrimidin-4-yloxy)-benzo[b]thiophene-3-carboxylic acid (4-fluoro-3-trifluoromethyl-phenyl)-amide], 138 to 140 °C.
In turn, `O=C(Nc1cccc(C(F)(F)F)c1)c1coc2cc(Oc3cc(CO)ncn3)ccc12` [Example 22, 6-(6-Hydroxymethyl-pyrimidin-4-yloxy)-benzofuran-3-carboxylic acid (3-trifluoromethyl-phenyl)-amide] returned a melting point of 181 to 182 °C.

The values above are taken from patent publication US8058276B2, “Heterobicyclic carboxamides as inhibitors for kinases” (Novartis AG, priority 2006, dated 2011).
